Results published in the supplement of paper PMC5908809.

Assays:
[1] = tested on: normal primary NK cells, pool 2 (3 donors) (IL-2 2.5 ng/mL); assay: percent inhibition of viability; higher = more inhibition; settings: 72 h
[2] = tested on: YT (IL-2 2.5 ng/mL); assay: as above; settings: 72 h
[3] = tested on: normal primary NK cells, pool 3 (3 donors) (IL-2 2.5 ng/mL); assay: as above; settings: 72 h
[4] = tested on: normal primary NK cells, pool 1 (3 donors) (IL-2 2.5 ng/mL); assay: as above; settings: 72 h
[5] = tested on: KHYG-1 (IL-2 2.5 ng/mL); assay: as above; settings: 72 h
[6] = tested on: DERL-7 (IL-2 2.5 ng/mL); assay: as above; settings: 72 h
[7] = tested on: NKL (IL-2 2.5 ng/mL); assay: as above; settings: 72 h
[8] = tested on: KAI3 (IL-2 2.5 ng/mL); assay: as above; settings: 72 h
[9] = tested on: normal primary NK cells, pool 1 (3 donors), resting (IL-2 0 ng/mL); assay: as above; settings: 72 h
[10] = tested on: NK-YS (IL-2 2.5 ng/mL); assay: as above; settings: 72 h
[11] = tested on: IMC-1 (IL-2 20 ng/mL); assay: as above; settings: 72 h
[12] = tested on: SNK-6 (IL-2 2.5 ng/mL); assay: as above; settings: 72 h
[13] = tested on: NK-92 (IL-2 2.5 ng/mL); assay: as above; settings: 72 h
[14] = tested on: normal primary NK cells, pool 2 (3 donors) (IL-2 2.5 ng/mL); assay: drug sensitivity score (DSS) (DSS units); higher = more sensitive; extreme values may be limits of the assay; settings: 72 h
[15] = tested on: YT (IL-2 2.5 ng/mL); assay: as above; settings: 72 h
[16] = tested on: normal primary NK cells, pool 3 (3 donors) (IL-2 2.5 ng/mL); assay: as above; settings: 72 h
[17] = tested on: normal primary NK cells, pool 1 (3 donors) (IL-2 2.5 ng/mL); assay: as above; settings: 72 h
[18] = tested on: KHYG-1 (IL-2 2.5 ng/mL); assay: as above; settings: 72 h
[19] = tested on: DERL-7 (IL-2 2.5 ng/mL); assay: as above; settings: 72 h
[20] = tested on: NKL (IL-2 2.5 ng/mL); assay: as above; settings: 72 h
[21] = tested on: KAI3 (IL-2 2.5 ng/mL); assay: as above; settings: 72 h
[22] = tested on: normal primary NK cells, pool 1 (3 donors), resting (IL-2 0 ng/mL); assay: as above; settings: 72 h
[23] = tested on: NK-YS (IL-2 2.5 ng/mL); assay: as above; settings: 72 h
[24] = tested on: IMC-1 (IL-2 20 ng/mL); assay: as above; settings: 72 h
[25] = tested on: SNK-6 (IL-2 2.5 ng/mL); assay: as above; settings: 72 h
[26] = tested on: NK-92 (IL-2 2.5 ng/mL); assay: as above; settings: 72 h
[27] = tested on: normal NK cells expanded with K562-aAPC; assay: percent inhibition of viability; higher = more inhibition; settings: 72 h, IL-2 2.5 ng/mL
Description: (§1)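 Drug sensitivity and resistance testing on K562-aAPC-expanded normal NK cells: 5 concentrations (10-fold steps over a 10,000-fold range), 72 h at 37 °C, viability by CellTiter-Glo normalised to DMSO and benzethonium chloride controls; DSS from the fitted curve.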

[28] = tested on: normal NK cells expanded with K562-aAPC; assay: drug sensitivity score (DSS) (DSS units); higher = more sensitive; extreme values may be limits of the assay; settings: 72 h; IL-2 2.5 ng/mL
Description: as §1

Cc1c(N)nc([C@H](CC(N)=O)NC[C@H](N)C(N)=O)nc1C(=O)N[C@H](C(=O)N[C@H](C)[C@@H](O)[C@H](C)C(=O)N[C@H](C(=O)NCCc1nc(-c2nc(C(=O)NCCC[S+](C)C)cs2)cs1)[C@@H](C)O)[C@@H](OC1OC(CO)C(O)C(O)C1OC1OC(CO)C(O)C(OC(N)=O)C1O)c1cnc[nH]1 (some centres not stated) [Bleomycin] (max concentration tested 10000 nM)
percent inhibition of viability [%]
Settings	1 nM	10 nM	100 nM	1000 nM	10000 nM
[1]	-11.5	-5.49	-1.39	19.4	73.8
[2]	-2.74	-1.16	1.84	13.3	51.6
[3]	-10.1	-1.71	12.2	27.9	68.2
[4]	-8.98	2.35	-2.19	6.69	52.9
[5]	-3.86	-5.7	-1.32	7.38	67.6
[6]	0.04	-2.28	1.21	29.5	78.2
[7]	-14.6	-9.35	-1.37	39.7	96.6
[8]	-4.06	-8.69	8.99	52.9	77
[9]	-6.18	-0.23	-9.89	-6.49	82
[10]	-1.93	-5.64	6.84	52.8	81.4
[11]	-0.57	-6.19	5.49	17.2	56.8
[12]	9.29	19.8	68.8	97	101
[13]	-18	-20.7	13.2	60.3	99
[27]	3.15	-1.5	7.63	34.1	62.5

Settings	drug sensitivity score
[14]	7.05
[15]	4.81
[16]	6.94
[17]	3.94
[18]	4.93
[19]	8.38
[20]	10.6
[21]	11.2
[22]	4.07
[23]	11.1
[24]	5.31
[25]	27.6
[26]	13.2
[28]	7.53

NC(=O)Nc1cc(-c2cccc(F)c2)sc1C(=O)N[C@H]1CCCNC1 [AZD7762] (max concentration tested 1000 nM)
percent inhibition of viability [%]
Settings	0.1 nM	1 nM	10 nM	100 nM	1000 nM
[1]	-6.25	11.4	-7.48	-6.09	39.8
[2]	-5.67	-1.28	2.8	28.1	99.1
[3]	-4.39	6.88	-1.78	-16.7	27.9
[4]	-5.93	12.7	4.94	7.28	38.7
[5]	-7.54	-7.13	3.29	100	106
[6]	0.34	1.83	-2.38	40.2	96.8
[7]	-9.43	-12.1	12	71.8	94.4
[8]	3.25	1.46	16.1	87.4	101
[9]	-1.65	27.9	17.6	7.65	15
[10]	-4.78	-5.3	-1.14	32.8	98.5
[11]	-6.23	-1.75	-2.17	-7.04	99
[12]	1.39	-7.11	6.7	38.1	98.3
[13]	-12.3	2.34	-2.59	33.4	104
[27]	-1.82	-2.38	-5.7	40.7	73.3

Settings	drug sensitivity score
[14]	1.59
[15]	9.64
[16]	0.69
[17]	3.1
[18]	18.4
[19]	10.7
[20]	14.9
[21]	18
[22]	2.58
[23]	10.1
[24]	4.99
[25]	10
[26]	10.2
[28]	9.03

CC[C@]1(O)C[C@H]2CN(CCc3c([nH]c4ccccc34)[C@@](C(=O)OC)(c3cc4c(cc3OC)N(C=O)[C@H]3[C@@](O)(C(=O)OC)[C@H](OC(C)=O)[C@]5(CC)C=CCN6CC[C@]43[C@@H]65)C2)C1 [Vincristine] (max concentration tested 1000 nM)
percent inhibition of viability [%]
Settings	0.1 nM	1 nM	10 nM	100 nM	1000 nM
[1]	-7.02	11	16.4	18.7	25.8
[2]	-6.99	-4.04	97.3	106	106
[3]	-10	9.15	8.72	4.62	15.8
[4]	-8.19	4.79	8.62	16.3	23.7
[5]	-4.8	0.56	99.8	108	109
[6]	-4.76	-3.31	99.7	100	99.9
[7]	-4.74	5.25	97.5	99.9	101
[8]	-2.89	0.47	50	71.7	82.8
[9]	-21.8	5.88	11	33.2	38.4
[10]	-8.13	-3.11	72.6	72.9	87.9
[11]	-6.56	-3.8	99.6	101	101
[12]	-5.32	2.61	81.6	86.6	96.8
[13]	0.11	-12.7	50.9	101	106
[27]	-6.33	-6.29	31.6	59	62.6

Settings	drug sensitivity score
[14]	4.98
[15]	29.8
[16]	0.39
[17]	2.75
[18]	30.5
[19]	30.1
[20]	30.9
[21]	20.7
[22]	6.94
[23]	24.4
[24]	30.1
[25]	27.4
[26]	24.3
[28]	15.5
